Results reported in patent publication US4871527A, “No-carrier-added [^18 F]-N-fluoroalkylspiroperidols” (The United States of America as represented by the United …, priority 1987, dated 1989).
Entries after “also recorded” stand apart in the source; their conditions may differ. Read-outs that look alike come from different tables or passages of the source.

Key:
[1] = Tissue distribution of NCA N-(3-[^18 F]fluoropropyl)spiroperidol in mice after butaclamol pretreatment; format: in vivo, female albino mice (BNL strain)
Description: Tissue Distribution of NCA N-(3-[^ 18 F]fluoropropyl)spiroperidol in Mice
Female albino mice (BNL strain), 22-27 g, were injected in a lateral tail vein with 24-85 μCi of N-(3-[^18 F]fluoropropyl)spiroperidol in 100 μl of isotonic saline solution.
Mice were pretreated with 2 mg/kg, i.v., of either (-)butaclamol (-), or
(+)butaclamol (+). The mice were killed by cervical dislocation and
decapitation at 5, 60 and 120 min after injection. The dissected tissues
were blotted to remove adhering blood and placed in tared counting vials.
A sample of blood was obtained from the trunk immediately after
decapitation. The entire tail was counted to verify the patency of the
tail vein injection. All samples were counted and weighed, and the
activity expressed as percent of injected dose per organ or percent of
injected dose per gram of tissue.

[2] = Metabolic stability of N-(3-[^18 F]fluoropropyl)spiroperidol in mouse brains; format: in vivo, female albino mice (BNL strain); conditions: for Percent Recovery of Total ^18 F Applied to C-18 Sep-Pak, H2O Eluate / Percent Recovery of Total ^18 F Applied to C-18 Sep-Pak, MeOH Eluate / Percent Recovery of Total ^18 F Applied to C-18 Sep-Pak, NaOH Eluate / Percent of ^18 F in MeOH as N-(3-[^18 F]fluoropropyl)spiroperidol / remaining at 1 h: 1 hr; for remaining at 1 h: mouse, brain, iv, read-out: Percent of Unchanged N-(3-[^18 F]fluoropropyl)spiroperidol
Description: Metabolic Stability of N-(3-[^18 F]fluoropropyl)spiroperidol in Mouse Brains
Three female albino mice (BNL strain), 27-30 g, were injected in a lateral tail vein with […] of N-(3-[^18 F]fluoropropyl)spiroperidol in 100 μl of isotonic saline solution. At 1 hr after injection, the mice were killed by cervical dislocation. The brain was rapidly removed, homogenized either in a mixture of 2 ml of CH3 OH and 4 ml of 0.4M HClO4, or in 2 ml of CH3 OH alone. The samples were centrifuged,and the CH3 OH fractions (or the entire supernants in the case of CH3 OH alone) were analyzed for unchanged N-(3-[^18 F]fluoropropyl)spiroperidol [Arnett et al., Life Sci., 36, 1359-1366 (1985)] and analyzed by HPLC (C18 column, 4.5×250 mm, CH3 OH:0.2N NH4 CO2 H (90:10), 1.5 ml/min).
^a The precipitates were separated without further washings.
^b The precipitates were separated and washed with MeOH--HClO4

[3] = Baboon plasma analyses: blood kinetics and metabolism; format: in vivo, baboon (Papio anubis)
Description: Baboon Plasma Analyses: Blood was sampled from the femoral artery at initial intervals of 5 sec. Aliquots of plasma were counted to determine the total plasma radioactivity clearance curve. Representative samples (Table 6) were also analyzed for unchanged N-(3-[^18 F]fluoropropyl)spiroperidol.
The baboon blood total plasma radioactivity clearance curve following injection of NCA N-(3-[^18 F]fluoropropyl)spiroperidol is depicted in FIG. 1. The blood clearance was very rapid. The appearance of metabolites in the blood was also rapid (Table 6). At 10 min after injection 68% of plasma radioactivity was due to unchanged N-(3-[^18 F]fluoropropyl)spiroperidol.
*Plasma samples were extracted with MeOH--0.4M HClO4

dopamine receptors [4] = assay: PET baboon studies: brain kinetics in striatum and cerebellum
Description: A young adult (11 kg) female baboon (Papio anubis) was anesthetized initially with ketamine and subsequently maintained under halothane/nitrous oxide anesthesia for two PETT studies as described in the Arnett et al. paper referenced in Example 7. […] PET scans were made continually for 4 hr from the time of radioisotope injection. Regions of interest corresponding to the striata and cerebellum were selected.

dopamine receptors [5] = assay: Affinity for dopamine receptors; format: binding
dopamine receptors [6] = assay: Uptake in the brain and radiation burden (general statement); conditions: in vivo
[7] = (+)-butaclamol pretreatment, 5 min
[8] = (+)-butaclamol pretreatment, 60 min
[9] = (+)-butaclamol pretreatment, 120 min
[10] = (-)-butaclamol pretreatment, 5 min
[11] = (-)-butaclamol pretreatment, 60 min
[12] = (-)-butaclamol pretreatment, 120 min
[13] = mouse brain, 2X MeOH-HClO4 (washed again)
[14] = mouse brain, MeOH-HClO4 extraction, no further washings
[15] = baboon plasma, 0.67 min after injection
[16] = baboon plasma, 4.0 min after injection
[17] = baboon plasma, 10 min after injection
[18] = baboon plasma, 30 min after injection
[19] = baboon plasma, 120 min after injection
[20] = baboon, (-)-butaclamol pretreatment

O=C(CCCN1CCC2(CC1)C(=O)N(CCC[18F])CN2c1ccccc1)c1ccc(F)cc1 [N-(3-[^18 F]fluoropropyl)spiroperidol]
Cerebellum, % injected dose [1, 7]: 0.11 (0.08-0.14) %/organ
Striatum, % injected dose [1, 7]: 0.051 %/organ
Whole Brain, % injected dose [1, 7]: 0.79 (0.57-1.00) %/organ
Cerebellum, % injected dose [1, 8]: 0.019 (0.013-0.025) %/organ
Striatum, % injected dose [1, 8]: 0.013 (0.009-0.018) %/organ
Whole Brain, % injected dose [1, 8]: 0.16 %/organ
Cerebellum, % injected dose [1, 9]: 0.012 %/organ
Striatum, % injected dose [1, 9]: 0.010 %/organ
Whole Brain, % injected dose [1, 9]: 0.097 %/organ
Cerebellum, % injected dose [1, 10]: 0.24 (0.13-0.45) %/organ
Striatum, % injected dose [1, 10]: 0.084 (0.068-0.099) %/organ
Whole Brain, % injected dose [1, 10]: 1.1 (0.9-1.4) %/organ
Cerebellum, % injected dose [1, 11]: 0.040 (0.032-0.048) %/organ
Striatum, % injected dose [1, 11]: 0.089 %/organ
Whole Brain, % injected dose [1, 11]: 0.67 (0.59-0.77) %/organ
Cerebellum, % injected dose [1, 12]: 0.028 (0.023-0.032) %/organ
Striatum, % injected dose [1, 12]: 0.14 (0.11-0.17) %/organ
Whole Brain, % injected dose [1, 12]: 0.56 (0.44-0.63) %/organ
Percent Recovery of Total ^18 F Applied to C-18 Sep-Pak, H2O Eluate [2, 13]: 11%
Percent Recovery of Total ^18 F Applied to C-18 Sep-Pak, MeOH Eluate [2, 13]: 81%
Percent Recovery of Total ^18 F Applied to C-18 Sep-Pak, NaOH Eluate [2, 13]: 3.1%
Percent of ^18 F in MeOH as N-(3-[^18 F]fluoropropyl)spiroperidol [2, 13]: 94%
Percent Recovery of Total ^18 F Applied to C-18 Sep-Pak, MeOH Eluate ([2]; mouse brain, MeOH Alone): 65%
Percent of ^18 F in MeOH as N-(3-[^18 F]fluoropropyl)spiroperidol ([2]; mouse brain, MeOH Alone): 97%
Percent Recovery of Total ^18 F Applied to C-18 Sep-Pak, H2O Eluate [2, 14]: 4.2%
Percent Recovery of Total ^18 F Applied to C-18 Sep-Pak, MeOH Eluate [2, 14]: 73%
Percent Recovery of Total ^18 F Applied to C-18 Sep-Pak, NaOH Eluate [2, 14]: 1.3%
Percent of ^18 F in MeOH as N-(3-[^18 F]fluoropropyl)spiroperidol [2, 14]: 94%
Stability to metabolic transformation in the central nervous system ([2]; mouse brain, one hour): very stable to metabolic transformation in the central nervous system
remaining at 1 h ([2]; 2X MeOH-HClO4 (washed again)): 76%
remaining at 1 h ([2]; MeOH Alone): 62%
remaining at 1 h ([2]; MeOH-HClO4 extraction, no further washings): 69%
Blood / total plasma radioactivity clearance ([3]; baboon): very rapid; also recorded: rapid
Total recovery of ^18 F applied to C-18 Sep-pak ([3]; baboon plasma samples): 90-103%
% Recovery of Total ^18 F Applied to C-18 Sep-Pak, H2O Eluate [3, 15]: 8%
% Recovery of Total ^18 F Applied to C-18 Sep-Pak, MeOH Eluate [3, 15]: 93%
% Recovery of Total ^18 F Applied to C-18 Sep-Pak, NaOH Eluate [3, 15]: 2%
% of ^18 F in MeOH as N-(3-[^18 F]fluoropropyl)spiroperidol [3, 15]: 98%
% Recovery of Total ^18 F Applied to C-18 Sep-Pak, H2O Eluate [3, 16]: 10%
% Recovery of Total ^18 F Applied to C-18 Sep-Pak, MeOH Eluate [3, 16]: 83%
% Recovery of Total ^18 F Applied to C-18 Sep-Pak, NaOH Eluate [3, 16]: 4%
% of ^18 F in MeOH as N-(3-[^18 F]fluoropropyl)spiroperidol [3, 16]: 99%
% Recovery of Total ^18 F Applied to C-18 Sep-Pak, H2O Eluate [3, 17]: 17%
% Recovery of Total ^18 F Applied to C-18 Sep-Pak, MeOH Eluate [3, 17]: 71%
% Recovery of Total ^18 F Applied to C-18 Sep-Pak, NaOH Eluate [3, 17]: 6%
% of ^18 F in MeOH as N-(3-[^18 F]fluoropropyl)spiroperidol [3, 17]: 96%
% Recovery of Total ^18 F Applied to C-18 Sep-Pak, H2O Eluate [3, 18]: 31%
% Recovery of Total ^18 F Applied to C-18 Sep-Pak, MeOH Eluate [3, 18]: 45%
% Recovery of Total ^18 F Applied to C-18 Sep-Pak, NaOH Eluate [3, 18]: 14%
% of ^18 F in MeOH as N-(3-[^18 F]fluoropropyl)spiroperidol [3, 18]: 90%
% Recovery of Total ^18 F Applied to C-18 Sep-Pak, H2O Eluate [3, 19]: 49%
% Recovery of Total ^18 F Applied to C-18 Sep-Pak, MeOH Eluate [3, 19]: 30%
% Recovery of Total ^18 F Applied to C-18 Sep-Pak, NaOH Eluate [3, 19]: 18%
% of ^18 F in MeOH as N-(3-[^18 F]fluoropropyl)spiroperidol [3, 19]: 74%
Appearance of metabolites in the blood ([3]; in vivo): rapid
remaining at 40 s ([3]; in vivo, iv, baboon plasma, 0.67 min after injection, read-out: % of Unchanged N-(3-[^18 F]fluoropropyl)spiroperidol): 91%
remaining at 4 min ([3]; in vivo, iv, baboon plasma, 4.0 min after injection, read-out: % of Unchanged N-(3-[^18 F]fluoropropyl)spiroperidol): 82%
remaining at 10 min ([3]; in vivo, iv, baboon plasma, 10 min after injection, read-out: % of Unchanged N-(3-[^18 F]fluoropropyl)spiroperidol): 68%
remaining at 0.5 h ([3]; in vivo, iv, baboon plasma, 30 min after injection, read-out: % of Unchanged N-(3-[^18 F]fluoropropyl)spiroperidol): 41%
remaining at 2 h ([3]; in vivo, iv, baboon plasma, 120 min after injection, read-out: % of Unchanged N-(3-[^18 F]fluoropropyl)spiroperidol): 22%
Striatal accumulation of radioactivity, blocking by (+)-butaclamol (dopamine receptors [4]; (+)-butaclamol pretreatment, species not given): blocked stereoselectively by (+)-butaclamol
Radioactivity in the cerebellum after first few minutes (dopamine receptors [4]; [20]): declined rapidly in the cerebellum
Radioactivity in the striatum after first few minutes (dopamine receptors [4]; [20]): increasing for up to 4 hrs in the striatum
Influx into striatum and cerebellum (dopamine receptors [4]; baboon, (-)-butaclamol pretreatment, first few minutes): nearly equal for the first few minutes
Affinity for dopamine receptors (dopamine receptors [5]): extremely high affinity for dopamine receptors
Radiation burden (dopamine receptors [6]): reduced radiation burden
Uptake and retention in the brain (dopamine receptors [6]): enhanced uptake and retention in the brain
